# Target: T1, human PAD4 (Homo sapiens, UniProt Q9UM07)
# T1 construct: human PAD4 (NM_012387), A2-P663, was PCR amplified; His-SUMO (N, cleaved yes); made in house; host or cells: E. coli BL21(DE3)
# Assay: In vitro PAD4 BAEE biochemical assay
# Details: BAEE substrate 3 mM, 5 nM PAD4, 2 mM calcium chloride; geometric mean of multiple experiments
# Summary of the method: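 Recombinant PAD4 (5 nM final) with 2 mM CaCl2 was preincubated with compound for 30 min at 25 °C in MOPS pH 7.6 buffer with DTT, then reacted with 3 mM BAEE for 2 h at 25 °C. Released ammonia was detected fluorimetrically with o-phthalaldehyde/DTT; IC50 from four-parameter fit, geometric mean of experiments.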
# T1 sequence (Q9UM07 2-663): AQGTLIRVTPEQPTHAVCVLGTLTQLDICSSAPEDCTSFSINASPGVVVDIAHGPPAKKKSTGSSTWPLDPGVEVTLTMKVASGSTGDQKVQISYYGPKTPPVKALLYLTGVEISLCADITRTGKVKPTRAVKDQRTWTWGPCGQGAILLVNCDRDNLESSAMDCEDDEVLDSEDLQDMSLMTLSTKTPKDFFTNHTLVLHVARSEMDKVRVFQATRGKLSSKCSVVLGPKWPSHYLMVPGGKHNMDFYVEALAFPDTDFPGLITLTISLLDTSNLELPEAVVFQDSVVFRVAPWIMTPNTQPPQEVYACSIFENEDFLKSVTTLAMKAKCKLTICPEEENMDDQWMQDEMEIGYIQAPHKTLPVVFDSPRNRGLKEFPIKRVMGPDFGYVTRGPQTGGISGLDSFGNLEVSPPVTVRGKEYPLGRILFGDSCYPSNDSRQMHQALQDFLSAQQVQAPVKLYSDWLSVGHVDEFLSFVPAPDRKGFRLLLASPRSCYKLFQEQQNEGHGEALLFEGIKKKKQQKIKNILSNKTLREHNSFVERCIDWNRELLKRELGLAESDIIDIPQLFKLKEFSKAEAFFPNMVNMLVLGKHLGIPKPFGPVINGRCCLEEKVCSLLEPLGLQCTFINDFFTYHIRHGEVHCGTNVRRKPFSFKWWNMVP
row,IC50,Compound
1,271 nM,"COc1cc(C(=O)N2CC[C@@H](OC(F)(F)F)[C@@H](N)C2)cc2nc(-c3cc4ccc5nc4n3CCCCC[C@@H]3C[C@H]3C(=O)N[C@@H]5C)n(C)c12 [Example 582, (2~{R},5~{R},7~{R})-14-[5-[(3~{S},4~{R})-3-amino-4-(trifluoromethoxy)piperidine-1-carbonyl]-7-methoxy-1-methyl-benzimidazol-2-yl]-2-methyl-3,13,19-triazatetracyclo[11.5.2.0^ {5,7}.0^{16,20}]icosa-1(19), 14,16(20),17-tetraen-4-one]"
2,34 nM,"C[C@H]1NC(=O)[C@]2(C)C[C@H]2CCCC(F)(F)Cn2c(-c3nc4cc(C(=O)N5[C@H]6CC[C@@H]5[C@H](N)C6)c(F)cc4n3C)cc3ccc1nc32 [Example 554, (2~{R},5~{R},7~ {R})-14-[5-[(1~{R},2~ {R},4~{S})-2-amino-7-azabicyclo[2.2.1]heptane-7-carbonyl]-6-fluoro-1-methyl-benzimidazol-2-yl]-11,11-difluoro-2,5-dimethyl-3,13,19-triazatetracyclo[11.5.2.0^ {5,7}.0^{16,20}]icosa-1(19), 14,16(20),17-tetraen-4-one]"
3,27 nM,"COc1cc(C(=O)N2C[C@H](N)[C@@H]3CC[C@H]2C3)cc2nc(-c3cc4ccc5nc4n3CCCCCC[C@H](c3ccccn3)C(=O)N[C@@H]5C)n(C)c12 [Example 892, (8~{R},11~{R})-17-[5-[(1~{S},4~{R},5~{R})-4-amino-2-azabicyclo[3.2.1]octane-2-carbonyl]-7-methoxy-1-methyl-benzimidazol-2-yl]-11-methyl-8-(2-pyridyl)-1,10,19-triazatricyclo[10.5.2.0^{15,18}] nonadeca-12(19), 13,15(18),16-tetraen-9-one]"
4,76 nM,"COCCO[C@@H]1CCN(C(=O)c2cc(OC)c3c(c2)nc(-c2cc4ccc5nc4n2CCCCC[C@@H]2C[C@H]2C(=O)N[C@@H]5C)n3C)C[C@@H]1N [Example 493, (2~{R},5~{R},7~{R})-14-[5-[(3~{S},4~{R})-3-amino-4-(2-methoxyethoxy)piperidine-1-carbonyl]-7-methoxy-1-methyl-benzimidazol-2-yl]-2-methyl-3,13,19-triazatetracyclo [11.5.2.0^{5,7}.0^{16,20}] icosa-1(19),14,16(20), 17-tetraen-4-one]"
5,17 nM,"COc1cc(C(=O)N2C[C@H](N)[C@@H]3CC[C@H]2C3)cc2nc(-c3cc4ccc5nc4n3CCCCC[C@]3(F)C[C@H]3C(=O)N[C@@H]5C)c(C3CC3)n12 [Example 758, (2~{R},5~{S},7~{S})-14-[7-[(1~{S},4~{R},5~{R})-4-amino-2-azabicyclo[3.2.1]octane-2-carbonyl]-3-cyclopropyl-5-methoxy-imidazo[1,2-a]pyridin-2-yl]-7-fluoro-2-methyl-3,13,19-triazatetracyclo [11.5.2.0^{5,7}.0^{16,20}] icosa-1(19),14,16(20),17-tetraen-4-one]"
6,29 nM,"COc1cc(C(=O)N2C[C@H](N)[C@@H]3CC[C@H]2C3)cc2nc(-c3cc4cc(F)c5cc4n3CC(F)(F)CCC[C@@H]3C[C@H]3C(=O)N[C@@H]5C)n(C)c12 [Example 463, (2~{R},5~{R},7~{R})-14-[5-[(1~{S},4~{R},5~{R})-4-amino-2-azabicyclo[3.2.1]octane-2-carbonyl]-7-methoxy-1-methyl-benzimidazol-2-yl]-11,11,18-trifluoro-2-methyl-3,13-diazatetracyclo[11.5.2.0^{5,7}.0^{16,20}] icosa-1(19),14,16(20),17-tetraen-4-one]"
7,69 nM,"COc1nccc2c1C(=O)N[C@H](C)c1ccc3cc(-c4nc5cc(C(=O)N6CC[C@@H](OC)[C@@H](N)C6)cc(OC)c5n4C)n(c3n1)CCCCC2 [Example 863, (2~{R})-17-[5-[(3~{S},4~{R})-3-amino-4-methoxy-piperidine-1-carbonyl]-7-methoxy-1-methyl-benzimidazol-2-yl]-6-methoxy-2-methyl-3,7,16,22-tetrazatetracyclo[14.5.2.0^ {5,10}.0^{19,23}]tricosa-1(22), 5(10),6,8,17,19(23),20-heptaen-4-one]"
8,22 nM,"C[C@H]1NC(=O)[C@@H]2C[C@H]2CCCCCn2c(-c3nc4cc(C(=O)N5C[C@H](N)[C@@H]6CC[C@H]5C6)ccc4n3C3CC3)cc3ccc1nc32 [Example 913, (2~{R},5~{R},7~{R})-14-[5-[(1~{S},4~{R},5~{R})-4-amino-2-azabicyclo[3.2.1]octane-2-carbonyl]-1-cyclopropyl-benzimidazol-2-yl]-2-methyl-3,13,19-triazatetracyclo [11.5.2.0^{5,7}.0^{16,20}] icosa-1(19),14,16(20),17-tetraen-4-one]"
9,13 nM,"COc1cc(C(=O)N2C[C@H](N)[C@@H]3CC[C@H]2C3)cc2nc(-c3cc4ccc5nc4n3CC(F)(F)CCC[C@]3(F)C[C@H]3C(=O)N[C@@H]5C)n(C3CC3)c12 [Example 769, (2~{R},5~{S},7~{S})-14-[5-[(1~{S},4~{R},5~{R})-4-amino-2-azabicyclo[3.2.1]octane-2-carbonyl]-1-cyclopropyl-7-methoxy-benzimidazol-2-yl]-7,11,11-trifluoro-2-methyl-3,13,19-triazatetracyclo [11.5.2.0^{5,7}.0^{16,20}] icosa-1(19),14,16(20), 17-tetraen-4-one]"
10,58 nM,"COc1cc(C(=O)N2CCC[C@@H](N)[C@H]2C(F)F)cc2nc(-c3cc4ccc5nc4n3CC(F)(F)CCC[C@@H]3C[C@H]3C(=O)N[C@@H]5C)n(C)c12 [Example 647, (2~{R},5~{R},7~{R})-14-[5-[(2~{S},3~{R})-3-amino-2-(difluoromethyl)piperidine-1-carbonyl]-7-methoxy-1-methyl-benzimidazol-2-yl]-11,11-difluoro-2-methyl-3,13,19-triazatetracyclo[11.5.2.0^ {5,7}.0^{16,20}] icosa-1(19),14,16(20), 17-tetraen-4-one]"

# The next lines start with the molecule.
row,Compound,IC50
1,"C[C@H]1NC(=O)C(C)(C)CCCCCCn2c(-c3nc4cc(C(=O)N[C@H]5CNCC[C@@H]5F)c(F)cc4n3C3CCC3)cc3ccc1nc32 [Example 420, 1-cyclobutyl-6-fluoro-˜{N}-[(3˜{S},4˜{S})-4-fluoro-3-piperidyl]-2-[(11˜{R})-8,8,11-trimethyl-9-oxo-1,10,19-triazatricyclo[10.5.2.0^{15,18}]nonadeca-12(19),13,15(18),16-tetraen-17-yl]benzimidazole-5-carboxamide]",184 nM
2,"COc1cc(C(=O)N2[C@H]3CC[C@@H]2[C@H](N)C3)cc2nc(-c3cc4ccc5nc4n3CCCCCCCC(=O)NC5C3CC3)n(C)c12 (stereo partly drawn) [Example 259, 17-[5-[(1˜{R},2˜{R},4˜{S})-2-amino-7-azabicyclo[2.2.1]heptane-7-carbonyl]-7-methoxy-1-methyl-benzimidazol-2-yl]-11-cyclopropyl-1,10,19-triazatricyclo[10.5.2.0^{15,18}]nonadeca-12(19),13,15(18),16-tetraen-9-one]",37 nM
3,"COc1cc(C(=O)N2[C@H]3CC[C@@H]2[C@H](N)C3)cc2nc(-c3cc4ccc5nc4n3CCCC[C@H]3C[C@@H]3C(=O)N[C@@H]5C)n(C)c12 [Example 152, (2~{R},5~{S},7~{S})-13-[5-[(1~{R},2~{R},4~{S})-2-amino-7-azabicyclo[2.2.1]heptane-7-carbonyl]-7-methoxy-1-methyl-benzimidazol-2-yl]-2-methyl-3,12,18-triazatetracyclo[10.5.2.0^{5,7}.0^{15,19}] nonadeca-1(18),13,15(19),16-tetraen-4-one]",43 nM
4,"COc1cc(C(=O)N2C[C@H](N)CCN2C)cc2nc(-c3cc4ccc5nc4n3CCCCCc3ccccc3C(=O)N[C@@H]5C)n(C)c12 [Example 44, (2~{R})-17-[5-[(5~{R})-5-amino-2-methyl-hexahydropyridazine-1-carbonyl]-7-methoxy-1-methyl-benzimidazol-2-yl]-2-methyl-3,16,22-triazatetracyclo[14.5.2.0^{5,10}.0^{19,23}] tricosa-1(22),5,7,9,17,19(23),20-heptaen-4-one]",64 nM
5,"COc1cc(C(=O)N2CCC[C@@H](N)C2)cc2nc(-c3cc4ccc5nc4n3CCCCCCCC(=O)N[C@@H]5C(F)(F)F)n(C)c12 (single isomer, unassigned) [Example 235, (11˜{S})-17-[5-[(3˜{R})-3-aminopiperidine-1-carbonyl]-7-methoxy-1-methyl-benzimidazol-2-yl]-11-(trifluoromethyl)-1,10,19-triazatricyclo[10.5.2.0^{15,18}]nonadeca-12(19),13,15(18),16-tetraen-9-one]",113 nM
6,"COc1cc(C(=O)N2[C@H]3CC[C@@H]2[C@H](N)C3)cc2nc(-c3cc4ccc5nc4n3CCCCCCCC(=O)N[C@@H]5C)c(C)n12 [Example 316, (11˜{R})-17-[7-[(1˜{R},2˜{R},4˜{S})-2-amino-7-azabicyclo[2.2.1]heptane-7-carbonyl]-5-methoxy-3-methyl-imidazo[1,2-a]pyridin-2-yl]-11-methyl-1,10,19-triazatricyclo[10.5.2.0^{15,18}]nonadeca-12(19),13,15(18),16-tetraen-9-one]",14 nM
7,"COc1cc(C(=O)N2CCC[C@@H](N)C2)cc2nc(-c3cc4ccc5nc4n3CCCCCC[C@H](C)C(=O)N[C@@H]5C)n(C)c12 [Example 111, (8~{S},11~{R})-17-[5-[(3~{R})-3-aminopiperidine-1-carbonyl]-7-methoxy-1-methyl-benzimidazol-2-yl]-8,11-dimethyl-1,10,19-triazatricyclo[10.5.2.0^{15,18}]nonadeca-12(19),13,15(18),16-tetraen-9-one]",49 nM
8,"COc1cc(C(=O)N2[C@H]3CC[C@@H]2[C@H](N)C3)cc2nc(-c3cc4ccc5nc4n3CC3(CC3)COCCC(=O)N[C@@H]5C)c(C)n12 [Example 329, (10~{R})-16-[7-[(1~{R},2~{R},4~{S})-2-amino-7-azabicyclo[2.2.1]heptane-7-carbonyl]-5-methoxy-3-methyl-imidazo[1,2-a]pyridin-2-yl]-10-methyl-spiro[5-oxa-1,9,18-triazatricyclo[9.5.2.0^{14,17}]octadeca-11(18),12,14(17),15-tetraene-3,1′-cyclopropane]-8-one]",48 nM
